In patent US20030186281A1, “Modified tetracycline repressor protein compositions and methods of use” (priority 2001, published 2003):

Test system: tet operator sequence
Assay: β-galactosidase activity of a tetracycline-regulated promoter in transformed E. coli with revTetR, in the presence and absence of anhydrotetracycline (atc)
Type: cell-based, Escherichia coli
Details: FIG. 2
Protocol: The relative activity of revTetR repressors was determined at 28° C. and 37° C. for each clone by measuring β-galactosidase activity of a tetracycline-regulated promoter in transformed Escherichia coli in the presence and absence of the tetracycline analog, anhydrotetracycline (atc). The relative β-galactosidase activity was measured in standard Miller units and is presented as the percent of maximal expression as measured in the absence of Tet repressor. […] With respect to each mutant, as well as the wild-type controls, FIG. 2 provides two horizontal bars; the upper horizontal bar represents the level of β-galactosidase activity in the absence of anhydrotetracycline (−atc) while the lower horizontal bar represents the level of β-galactosidase activity in the presence of anhydrotetracycline (+atc). […]
The ability of each revTetR clone to bind to its cognate tet operator sequence and regulate transcription in a prokaryotic organism, Escherichia coli, in the presence and absence of a tetracycline analog (anhydrotetracycline, atc) was determined (Table 3, FIG. 2). […]

Q: For `Cc1c2c(c(O)c3c(O)cccc13)C(=O)[C@]1(O)C(=O)C(C(N)=O)=C(O)[C@@H](N(C)C)[C@@H]1C2` [anhydrotetracycline, reference compound], which “repression of transcription in prokaryotic organisms by the tetracycline analog (with revTetR)” value is on record?
A: Its value is “about 50 fold”.
